Data on five cell lines can be found in the supplement of paper PMC10307832.

Test in all cases: relative viability (nuclei count vs DMSO), 5 days (fraction); higher = more cells survive
Compound in assay [1]: O=S(=O)(c1ccccc1)N(CC(F)(F)F)c1ccc(C(O)(C(F)(F)F)C(F)(F)F)cc1
The essentials:
(§1)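 Viability is treated-well nuclei as a fraction of vehicle-well nuclei, reported as the median across plates. Before counting, lung cancer cell lines were kept overnight at 37 °C in 1536-well plates, pinned with five √10-spaced library-drug doses on vehicle-anchored plates, and left 5 days without medium change, then fixed, permeabilised and Hoechst-stained in one step, imaged at 4× and counted by MetaXpress. A plate passed only if control CV was below 25% and at least one doubling occurred.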

Compound in a further assay: COc1cc2c(Oc3ccc(NC(=O)C4(C(=O)Nc5ccc(F)cc5)CC4)cc3F)ccnc2cc1OCCCN1CCOCC1 [Foretinib] (anchor plate)
To be noted: 0.25 µM. The method, boiled down:
as §1

Compound in another assay: C1=CC2=C(C=CC(=C2)C=C3C(=O)NC(=NCC4=CC=CS4)S3)N=C1 [RO-3306]
The essentials: as §1

Compound in assay [2]: O=S(=O)(c1ccccc1)N(CC(F)(F)F)c1ccc(C(O)(C(F)(F)F)C(F)(F)F)cc1 + Cc1cc(Nc2cc(N3CCN(C)CC3)nc(Sc3ccc(NC(=O)C4CC4)cc3)n2)n[nH]1 [Tozasertib] (partner 0.1 µM)
The method, boiled down: (§2)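 Lung cancer cell lines were seeded in 1536-well plates and dosed by pin tool the next day, with either a single drug or a fixed anchor-drug dose combined with five library-drug doses (not always all listed) spaced in √10 steps. Five days later, one step fixed the cells and stained their nuclei (final 0.05% Triton X-100, 1% formaldehyde, 1 ug/ml Hoechst), and nuclei were counted on 4× images. Relative viability is the nuclei count in treated wells divided by the count in vehicle wells, and each value is the median of duplicate plates.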

Compound in assay [3]: O=S(=O)(c1ccccc1)N(CC(F)(F)F)c1ccc(C(O)(C(F)(F)F)C(F)(F)F)cc1 + N=C(N)NC(=N)NCCc1ccccc1 [Phenformin] (partner 250 µM)
The essentials:
as §2

Compound in the assay “RO-3306 + Linsitinib”: C1=CC2=C(C=CC(=C2)C=C3C(=O)NC(=NCC4=CC=CS4)S3)N=C1 [RO-3306] + C[C@]1(O)C[C@@H](c2nc(-c3ccc4ccc(-c5ccccc5)nc4c3)c3c(N)nccn32)C1 [Linsitinib] (partner 1 µM)
The method, boiled down: as §2

On to PC-14, for which the relative viability in assay [1] (0.8 µM) was found to be 1.03; in assay [1] (2.53 µM), 0.832; in assay [1] (8 µM), 0.83; in the assay with Foretinib, 0.951; with RO-3306 (0.01 µM), 1.05; in the assay with RO-3306 (0.03162 µM), 0.836. For the same cell line, the relative viability in the assay with RO-3306 (0.1 µM) was 1.05; with RO-3306 (0.3162 µM), 1.05; with RO-3306 (1 µM) it was 0.926; in assay [2] (first compound 0.8 µM) it was 0.559; in assay [2] (first compound 2.53 µM), 0.445; in assay [2] (first compound 8 µM), 0.34. Besides, the relative viability amounted to 0.309 in assay [3] (first compound 0.8 µM); 0.357 in assay [3] (first compound 2.53 µM); 0.447 in assay [3] (first compound 8 µM); 0.989 in the assay with RO-3306 + Linsitinib (first compound 0.01 µM); 0.773 with RO-3306 + Linsitinib (first compound 0.03162 µM); 0.969 in the assay with RO-3306 + Linsitinib (first compound 0.1 µM). Moreover, the values for the relative viability with RO-3306 + Linsitinib (first compound 0.3162 µM) and in the assay with RO-3306 + Linsitinib (first compound 1 µM) were 1.02 and 0.991, respectively.
As for RERF-LC-KJ, the relative viability worked out at 1.02 in assay [1] (0.8 µM); 0.87 in assay [1] (2.53 µM); 0.84 in assay [1] (8 µM); 0.865 in the assay with Foretinib; 1.07 with RO-3306 (0.01 µM); 0.86 with RO-3306 (0.03162 µM). Also, the relative viability was found to be 0.983 in the assay with RO-3306 (0.1 µM); 1.04 in the assay with RO-3306 (0.3162 µM); 1.01 with RO-3306 (1 µM); 0.5 in assay [2] (first compound 0.8 µM); 0.445 in assay [2] (first compound 2.53 µM); 0.523 in assay [2] (first compound 8 µM). Also, the relative viability in assay [3] (first compound 0.8 µM) is 0.449; in assay [3] (first compound 2.53 µM), 0.364; in assay [3] (first compound 8 µM) it was 0.408; with RO-3306 + Linsitinib (first compound 0.01 µM), 0.956; in the assay with RO-3306 + Linsitinib (first compound 0.03162 µM) it was 0.831; with RO-3306 + Linsitinib (first compound 0.1 µM), 0.902. Moreover, the values for the relative viability with RO-3306 + Linsitinib (first compound 0.3162 µM) and in the assay with RO-3306 + Linsitinib (first compound 1 µM) were 0.974 and 1, respectively.
Take SK-LU-1: the relative viability in assay [1] (0.8 µM) was 1.16; in assay [1] (2.53 µM), 1.08; in assay [1] (8 µM) it was 0.992; in the assay with Foretinib, 0.785; with RO-3306 (0.01 µM) it was 1.08; with RO-3306 (0.03162 µM), 0.924. Further, the relative viability stood at 1.07 with RO-3306 (0.1 µM); 1.01 with RO-3306 (0.3162 µM); 0.995 with RO-3306 (1 µM); 0.285 in assay [2] (first compound 0.8 µM); 0.328 in assay [2] (first compound 2.53 µM); 0.301 in assay [2] (first compound 8 µM). Also, the relative viability in assay [3] (first compound 0.8 µM) was 0.546; in assay [3] (first compound 2.53 µM), 0.489; in assay [3] (first compound 8 µM) it was 0.526; with RO-3306 + Linsitinib (first compound 0.01 µM), 1.25; with RO-3306 + Linsitinib (first compound 0.03162 µM), 1.08; in the assay with RO-3306 + Linsitinib (first compound 0.1 µM), 1.02. In addition, the relative viability with RO-3306 + Linsitinib (first compound 0.3162 µM) stood at 1.19; with RO-3306 + Linsitinib (first compound 1 µM), 0.957.
For SK-MES-1, the relative viability is 1.11 in assay [1] (0.8 µM); 0.973 in assay [1] (2.53 µM); 0.936 in assay [1] (8 µM); 0.965 with Foretinib; 1.07 with RO-3306 (0.01 µM); 0.963 with RO-3306 (0.03162 µM). Also, the relative viability is 1.02 with RO-3306 (0.1 µM); 1.08 with RO-3306 (0.3162 µM); 1.08 with RO-3306 (1 µM); 1.11 in assay [2] (first compound 0.8 µM); 1.05 in assay [2] (first compound 2.53 µM); 0.962 in assay [2] (first compound 8 µM). Besides, the relative viability in assay [3] (first compound 0.8 µM) was determined as 0.779; in assay [3] (first compound 2.53 µM), 0.745; in assay [3] (first compound 8 µM) it was 0.65; with RO-3306 + Linsitinib (first compound 0.01 µM), 1.14; with RO-3306 + Linsitinib (first compound 0.03162 µM) it was 0.859; with RO-3306 + Linsitinib (first compound 0.1 µM), 1.16. For the same cell line, the relative viability with RO-3306 + Linsitinib (first compound 0.3162 µM) came to 1.16; with RO-3306 + Linsitinib (first compound 1 µM), 1.15.
Regarding SW 1573, the relative viability stood at 1.17 in assay [1] (0.8 µM); 1.01 in assay [1] (2.53 µM); 0.884 in assay [1] (8 µM); 0.879 with Foretinib; 1.02 with RO-3306 (0.01 µM); 0.781 with RO-3306 (0.03162 µM). The relative viability in the assay with RO-3306 (0.1 µM) stood at 0.945; in the assay with RO-3306 (0.3162 µM), 1.05; with RO-3306 (1 µM), 0.979; in assay [2] (first compound 0.8 µM) it was 0.182; in assay [2] (first compound 2.53 µM), 0.17; in assay [2] (first compound 8 µM), 0.215. For the same cell line, the relative viability in assay [3] (first compound 0.8 µM) was 0.47; in assay [3] (first compound 2.53 µM), 0.37; in assay [3] (first compound 8 µM) it was 0.401; in the assay with RO-3306 + Linsitinib (first compound 0.01 µM), 0.869; with RO-3306 + Linsitinib (first compound 0.03162 µM), 0.721; with RO-3306 + Linsitinib (first compound 0.1 µM) it was 0.805. The values for the relative viability with RO-3306 + Linsitinib (first compound 0.3162 µM) and with RO-3306 + Linsitinib (first compound 1 µM) were 0.762 and 0.727, respectively.
